Key:
CBP/β-Catenin = experiment: SuperTOPFLASH cell-based luciferase assay (Wnt-driven Luciferase Activity in Stably Transfected Cell Line, Hek293, STF1.1)
Procedure: SuperTOPFLASH Cell-based Luciferase Assay. Hek-293, STF1.1 cells are maintained in DMEM, 10% FBS, Pen-Strep supplemented with 200 μg/mL G418. On the day prior to assay, cells are split into a white, opaque 96-well plate at 10,000 cells per well in 50 μL of complete medium without G418 (for screening of Wnt-signaling inhibitors, G418 can be left out during screening process). After allowing the cells to stabilize and attach overnight, 40 μL of complete medium (without G418) containing 2.5× final concentration of compound or DMSO control is added to the cells and allowed to incubate for 1 hour at 37° C., 5% CO2 prior to adding 10 μL of a 100 mM LiCl solution prepared in complete medium (without G418). After 24 hours, 100 μL of BrightGlo (Promega, Cat. #: G7573) is added to each well and the plate is shaken for 5 minutes prior to reading on the Perkin-Elmer EnVision Plate Reader. For example, on the day prior to assay: cells are split into a white opaque 96-well plate at 10,000 cells per well in 50 μL of complete growth medium; the plate is incubated overnight at 37° C., 5% CO2 and the cells allowed to attach; the next day inhibitors to be tested are prepared in complete growth medium at 2.5× the desired final concentration (all conditions are done in duplicates), and 40 μL of the medium containing the 2.5× concentration of compound is added to each well (include 2 wells for stimulation control, 2 wells for DMSO control, and wells for the positive control ICG-001 (e.g., 2, 5, and 10 micromolar)); once all inhibitors and controls are added, incubate the plate for 1 hour at 37° C., 5% CO2 (while plate is incubating, prepare fresh 100 mM LiCl in complete growth medium); after 1 hour, the plate is removed from the incubator and 10 μL of the medium containing 100 mM LiCl are added to each well (except for the two wells of the unstimulated control, to which […] of just complete medium is added); the plate is incubated for 24 hours at 37° C., 5% CO2; after 24 hours, 100 microliters of BrightGlo (Promega, Cat. #: G7573) is added to each well, the plate is shaken for 5 minutes to ensure complete lysis, and the plate is then read on a Perkin-Elmer EnVision 96-well plate reader.

[1] = intravenous, patients with HCV cirrhosis, cited from earlier work
[2] = system: T memory stem cells (SCM) and central memory T-cells (CM); conditions: ART-suppressed SIVmac251-infected RMs; cited from earlier work
[3] = FIG. 1, compounds 0.078 μM to 10 μM, ICG-001 positive control at 0.62-20 μM
[4] = FIG. 2, compounds 0.625 μM to 5 μM, ICG-001 positive control at 2.5, 5 and 10 μM
[5] = 10 and 40 mg/m^2/day for 12 weeks

Structure (SMILES): O=C1[C@H](Cc2ccc(O)cc2)N2C(=O)CN(Cc3cnn(-c4ccccc4)c3)N(C(=O)NCc3ccccc3)[C@H]2CN1Cc1cccc2ncccc12 [Compound 1, (6S,9aS)—N-benzyl-6-(4-hydroxybenzyl)-4,7-dioxo-2-((1-phenyl-1H-pyrazol-4-yl)methyl)-8-(quinolin-5-ylmethyl)octahydro-1H-pyrazino[2,1-c][1,2,4]triazine-1-carboxamide]
- CBP/β-Catenin inhibition activity: potency compared with ICG-001 (CBP/β-Catenin; [3]): greater potency than that of ICG-001
- CBP/β-Catenin inhibition activity: potency compared between compounds 1 and 2 (CBP/β-Catenin; FIG. 1, concentrations between 0.078 μM and 10 μM): greater potency than that of compound 2

Structure (SMILES): O=C1[C@H](Cc2ccc(O)cc2)N2C(=O)CN(Cc3cnn(-c4ccccc4)c3Br)N(C(=O)NCc3ccccc3)[C@H]2CN1Cc1cccc2ncccc12 [Compound 2, (6S,9aS)—N-benzyl-2-((5-bromo-1-phenyl-1H-pyrazol-4-yl)methyl)-6-(4-hydroxybenzyl)-4,7-dioxo-8-(quinolin-5-ylmethyl)octahydro-1H-pyrazino[2,1-c][1,2,4]triazine-1-carboxamide]
- CBP/β-Catenin inhibition activity: potency compared with ICG-001 (CBP/β-Catenin; [3]): greater potency than that of ICG-001

Structure (SMILES): O=C1[C@H](Cc2ccc(O)cc2)N2C(=O)CN(Cc3ccn(-c4ccccc4)n3)N(C(=O)NCc3ccccc3)[C@H]2CN1Cc1cccc2cccnc12 [Compound 3, (6S,9aS)—N-benzyl-6-(4-hydroxybenzyl)-4,7-dioxo-2-((1-phenyl-1H-pyrazol-3-yl)methyl)-8-(quinolin-8-ylmethyl)octahydro-1H-pyrazino[2,1-c][1,2,4]triazine-1-carboxamide]
- CBP/β-Catenin inhibition activity: potency compared with ICG-001 (CBP/β-Catenin; [4]): greater potency than that of ICG-001

Structure (SMILES): O=C1[C@H](Cc2ccc(O)cc2)N2C(=O)CN(Cc3cnn(-c4ccccc4)c3)N(C(=O)NCc3ccccc3)[C@H]2CN1Cc1cccc2cccnc12 [Compound 4, (6S,9aS)—N-benzyl-6-(4-hydroxybenzyl)-4,7-dioxo-2-((1-phenyl-1H-pyrazol-4-yl)methyl)-8-(quinolin-8-ylmethyl)octahydro-1H-pyrazino[2,1-c][1,2,4]triazine-1-carboxamide]
- CBP/β-Catenin inhibition activity: potency compared with ICG-001 (CBP/β-Catenin; [4]): greater potency than that of ICG-001
- CBP/β-Catenin inhibition activity: potency compared between compounds 3 and 4 (CBP/β-Catenin; FIG. 2, concentrations between 0.625 μM and 5 μM): greater potency than that of compound 3

Structure (SMILES): C[C@H]1[C@H]2N(C(=O)CN(C)N2C(=O)NCc2ccccc2)[C@@H](Cc2ccc(OP(=O)(O)O)cc2)C(=O)N1Cc1cccc2cccnc12 [PRI-724]
- Safety ([1]; 10 and 40 mg/m^2/day for 12 weeks (1 week on and 1 week off)): appeared to be safe
- Liver histology and Child Pugh scores [1, 5]: improvement in liver histology and Child Pugh scores in several patients
- Plasma exposure of the drug [1, 5]: dose-dependent plasma exposure
- Proliferation of T memory stem cells (SCM) and central memory (CM) T-cells [2]: decrease proliferation

Source: patent US20240352020A1, “PYRAZOLE-CONTAINING CBP/CATENIN ANTAGONISTS AND USES THEREOF” (3+2 PHARMA, LLC, priority 2021, published 2024)
